Assays:
[1] = tested on: Brassica rapa subsp. oleifera; experiment: Growth inhibition of Brassica rapa subsp. oleifera assessed as chlorophyll b level at 3 x 10^-4 M after 7 days; assay type: functional; set-up: scale not given: the % may be the effect or the level left
[2] = tested on: Brassica rapa subsp. oleifera; experiment: Growth inhibition of Brassica rapa subsp. oleifera assessed as chlorophyll b level at 1 x 10^-4 M after 7 days; assay type: functional; set-up: scale not given: the % may be the effect or the level left
[3] = tested on: Brassica rapa subsp. oleifera; experiment: Growth inhibition of Brassica rapa subsp. oleifera assessed as chlorophyll a level at 3 x 10^-5 M after 7 days; assay type: functional; set-up: scale not given: the % may be the effect or the level left
[4] = tested on: Brassica rapa subsp. oleifera; experiment: Growth inhibition of Brassica rapa subsp. oleifera assessed as chlorophyll a level at 5 x 10^-5 M after 7 days; assay type: functional; set-up: scale not given: the % may be the effect or the level left
[5] = Toxicity in Mus musculus ddY (mouse) assessed as mortality at 500 mg/kg, ip after 4 days; assay type: organism-based; set-up: dose 500 mg/kg, route intraperitoneal; settings: in vivo
[6] = Toxicity in Mus musculus ddY (mouse) assessed as mortality at 650 mg/kg, ip after 4 days; assay type: organism-based; set-up: dose 650 mg/kg, route intraperitoneal; settings: in vivo
[7] = Toxicity in Mus musculus ddY (mouse) assessed as mortality at 600 mg/kg, ip after 4 days; assay type: organism-based; set-up: dose 600 mg/kg, route intraperitoneal; settings: in vivo
[8] = Toxicity in ip dosed Mus musculus ddY (mouse) assessed as mortality after 1 to 7 days; assay type: organism-based; settings: in vivo
[9] = tested on: Brassica rapa subsp. oleifera; experiment: Growth inhibition of Brassica rapa subsp. oleifera assessed as total chlorophyll level at 5 x 10^-5 M after 7 days; assay type: functional; set-up: scale not given: the % may be the effect or the level left
[10] = tested on: Brassica rapa subsp. oleifera; experiment: Growth inhibition of Brassica rapa subsp. oleifera assessed as total chlorophyll level at 3 x 10^-5 M after 7 days; assay type: functional; set-up: scale not given: the % may be the effect or the level left
[11] = tested on: Brassica rapa subsp. oleifera; experiment: Growth inhibition of Brassica rapa subsp. oleifera assessed as total chlorophyll level at 1 x 10^-4 M after 7 days; assay type: functional; set-up: scale not given: the % may be the effect or the level left
[12] = tested on: Brassica rapa subsp. oleifera; experiment: Growth inhibition of Brassica rapa subsp. oleifera assessed as total chlorophyll level at 3 x 10^-4 M after 7 days; assay type: functional; set-up: scale not given: the % may be the effect or the level left
[13] = tested on: Brassica rapa subsp. oleifera; experiment: Growth inhibition of Brassica rapa subsp. oleifera assessed as root growth at 3 x 10^-5 M after 7 days; assay type: functional
[14] = tested on: Brassica rapa subsp. oleifera; experiment: Growth inhibition of Brassica rapa subsp. oleifera assessed as root growth at 5 x 10^-5 M after 7 days; assay type: functional
[15] = tested on: Brassica rapa subsp. oleifera; experiment: Growth inhibition of Brassica rapa subsp. oleifera assessed as root growth at 1 x 10^-4 M after 7 days; assay type: functional
[16] = tested on: Brassica rapa subsp. oleifera; experiment: Growth inhibition of Brassica rapa subsp. oleifera assessed as root growth at 3 x 10^-4 M after 7 days; assay type: functional
[17] = Toxicity in Mus musculus ddY (mouse) assessed as mortality at 400 mg/kg, ip after 4 days; assay type: organism-based; set-up: dose 400 mg/kg, route intraperitoneal; settings: in vivo
[18] = Toxicity in Mus musculus ddY (mouse) assessed as mortality at 450 mg/kg, ip after 3 days; assay type: organism-based; set-up: dose 450 mg/kg, route intraperitoneal; settings: in vivo
[19] = Toxicity in Mus musculus ddY (mouse) assessed as mortality at 400 mg/kg, ip after 3 days; assay type: organism-based; set-up: dose 400 mg/kg, route intraperitoneal; settings: in vivo
[20] = Toxicity in Mus musculus ddY (mouse) assessed as mortality at 550 mg/kg, ip after 3 days; assay type: organism-based; set-up: dose 550 mg/kg, route intraperitoneal; settings: in vivo
[21] = Toxicity in Mus musculus ddY (mouse) assessed as mortality at 500 mg/kg, ip after 3 days; assay type: organism-based; set-up: dose 500 mg/kg, route intraperitoneal; settings: in vivo
[22] = Toxicity in Mus musculus ddY (mouse) assessed as mortality at 650 mg/kg, ip after 3 days; assay type: organism-based; set-up: dose 650 mg/kg, route intraperitoneal; settings: in vivo
[23] = Toxicity in Mus musculus ddY (mouse) assessed as mortality at 600 mg/kg, ip after 3 days; assay type: organism-based; set-up: dose 600 mg/kg, route intraperitoneal; settings: in vivo
[24] = Toxicity in Mus musculus ddY (mouse) assessed as mortality at 450 mg/kg, ip after 2 days; assay type: organism-based; set-up: dose 450 mg/kg, route intraperitoneal; settings: in vivo
[25] = Toxicity in Mus musculus ddY (mouse) assessed as mortality at 550 mg/kg, ip after 2 days; assay type: organism-based; set-up: dose 550 mg/kg, route intraperitoneal; settings: in vivo
[26] = Toxicity in Mus musculus ddY (mouse) assessed as mortality at 500 mg/kg, ip after 2 days; assay type: organism-based; set-up: dose 500 mg/kg, route intraperitoneal; settings: in vivo
[27] = Toxicity in Mus musculus ddY (mouse) assessed as mortality at 650 mg/kg, ip after 2 days; assay type: organism-based; set-up: dose 650 mg/kg, route intraperitoneal; settings: in vivo
[28] = Toxicity in Mus musculus ddY (mouse) assessed as mortality at 600 mg/kg, ip after 2 days; assay type: organism-based; set-up: dose 600 mg/kg, route intraperitoneal; settings: in vivo
[29] = Toxicity in Mus musculus ddY (mouse) assessed as mortality at 400 mg/kg, ip after 2 days; assay type: organism-based; set-up: dose 400 mg/kg, route intraperitoneal; settings: in vivo

## O=C(O)CN1C(=O)CSC1=S [RHODANINE-3-ACETIC ACID]
[1]
  Activity: 3.76%
[2]
  Activity: 5.48%
[3]
  Activity: 18.01%
[4]
  Activity: 17.08%
[5]
  mortality at 96 h: 20%
[6]
  mortality at 96 h: 100%
[7]
  mortality at 96 h: 80%
[8]
  LD50: 510 mg/kg
[9]
  Activity: 24.42%
[10]
  Activity: 25.06%
[11]
  Activity: 19.57%
[12]
  Activity: 13.99%
[13]
  Root length: 57 mm
[14]
  Root length: 57.1 mm
[15]
  Activity: 39.8 mm
[16]
  Activity: 18.3 mm
[17]
  mortality at 96 h: 0%
[18]
  mortality at 72 h: 0%
[19]
  mortality at 72 h: 0%
[20]
  mortality at 72 h: 40%
[21]
  mortality at 72 h: 20%
[22]
  mortality at 72 h: 100%
[23]
  mortality at 72 h: 60%
[24]
  mortality at 48 h: 0%
[25]
  mortality at 48 h: 0%
[26]
  mortality at 48 h: 20%
[27]
  mortality at 48 h: 100%
[28]
  mortality at 48 h: 60%
[29]
  mortality at 48 h: 0%

From ChEMBL document CHEMBL3044763, “Inhibitory Activities of Rhodanine Derivatives on Plant Growth” (Biosci Biotechnol Biochem, 1996)
